Results reported in patent US8791132B2, “Compounds and methods for treatment of hypertension” (Medivation Technologies, Inc., priority 2011, dated 2014).
Read-outs that look alike come from different tables or passages of the source. One block for each compound: values may come before it.

Experiments:
[1] = target: T1, human recombinant adrenergic α2B receptor (Homo sapiens, UniProt P18089); experiment: Radioligand binding, adrenergic α2B ([3H]Rauwolscine); settings: for Percentage inhibition of ligand binding, Adrenergic α2B / Percentage inhibition of ligand binding, Adrenergic α2B (0.03 μM): 0.03 µM
T1 construct: expressed in transfected cells; host or cells: CHO-K1
T1 sequence (P18089 1-450): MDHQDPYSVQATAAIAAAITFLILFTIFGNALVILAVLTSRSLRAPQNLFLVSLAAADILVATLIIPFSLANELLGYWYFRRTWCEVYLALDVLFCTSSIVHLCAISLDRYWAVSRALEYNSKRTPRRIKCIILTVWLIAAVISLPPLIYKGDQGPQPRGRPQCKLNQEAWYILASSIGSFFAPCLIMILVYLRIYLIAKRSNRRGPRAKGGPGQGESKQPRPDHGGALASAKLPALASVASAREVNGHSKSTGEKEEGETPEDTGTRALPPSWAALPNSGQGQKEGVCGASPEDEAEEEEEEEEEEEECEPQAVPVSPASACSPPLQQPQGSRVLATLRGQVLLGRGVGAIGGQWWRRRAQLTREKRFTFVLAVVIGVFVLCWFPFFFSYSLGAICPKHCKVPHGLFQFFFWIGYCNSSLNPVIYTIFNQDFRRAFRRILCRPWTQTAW
Outline: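 Readout: percent inhibition of specific [3H]Rauwolscine binding, measured by filtration and counting. Conditions: CHO-K1 cell-expressed receptor, 2.5 nM radioligand, 60 min, 25° C, Tris-HCl pH 7.4 buffer with MgCl2, EDTA, BSA. Non-specific binding: 10 μM Prazosin.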

[2] = target: T2, human recombinant adrenergic α2A receptor (Homo sapiens, UniProt P08913); experiment: Radioligand binding, adrenergic α2A ([3H]MK-912); settings: for Percentage inhibition of ligand binding, Adrenergic α2A / Percentage inhibition of ligand binding, Adrenergic α2A (0.1 μM): 0.1 µM
T2 construct: expressed in transfected cells; host or cells: insect Sf9 cells
T2 sequence (P08913 1-465): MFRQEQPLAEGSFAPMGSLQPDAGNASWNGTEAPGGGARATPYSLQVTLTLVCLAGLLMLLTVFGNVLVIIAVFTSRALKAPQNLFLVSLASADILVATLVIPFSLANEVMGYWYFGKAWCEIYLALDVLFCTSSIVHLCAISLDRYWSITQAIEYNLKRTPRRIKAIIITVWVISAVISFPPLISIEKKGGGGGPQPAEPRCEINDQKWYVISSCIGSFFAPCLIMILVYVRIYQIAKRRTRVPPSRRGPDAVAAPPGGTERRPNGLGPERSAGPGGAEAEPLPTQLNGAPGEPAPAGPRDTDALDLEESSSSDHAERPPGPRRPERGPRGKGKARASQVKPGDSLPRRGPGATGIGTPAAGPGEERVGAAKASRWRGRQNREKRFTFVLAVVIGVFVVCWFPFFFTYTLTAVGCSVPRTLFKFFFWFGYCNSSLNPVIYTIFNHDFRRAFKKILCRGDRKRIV
Outline: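 Displacement of 1 nM [3H]MK-912 from receptor produced in insect Sf9 cells was measured after 60 min at 25 °C. Readout: percent inhibition of specific binding.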

[3] = target: T3, rat adrenergic α1B receptor (Rattus norvegicus, UniProt P15823); experiment: Radioligand binding, adrenergic α1B ([3H]Prazosin); settings: for Percentage inhibition of ligand binding, Adrenergic α1B / Percentage inhibition of ligand binding, Adrenergic α1B (0.1 μM): 0.1 µM
T3 construct: rat adrenergic α1B receptor obtained from Wistar Rat liver; from tissue; host or cells: Wistar rat liver
T3 sequence (P15823 1-515): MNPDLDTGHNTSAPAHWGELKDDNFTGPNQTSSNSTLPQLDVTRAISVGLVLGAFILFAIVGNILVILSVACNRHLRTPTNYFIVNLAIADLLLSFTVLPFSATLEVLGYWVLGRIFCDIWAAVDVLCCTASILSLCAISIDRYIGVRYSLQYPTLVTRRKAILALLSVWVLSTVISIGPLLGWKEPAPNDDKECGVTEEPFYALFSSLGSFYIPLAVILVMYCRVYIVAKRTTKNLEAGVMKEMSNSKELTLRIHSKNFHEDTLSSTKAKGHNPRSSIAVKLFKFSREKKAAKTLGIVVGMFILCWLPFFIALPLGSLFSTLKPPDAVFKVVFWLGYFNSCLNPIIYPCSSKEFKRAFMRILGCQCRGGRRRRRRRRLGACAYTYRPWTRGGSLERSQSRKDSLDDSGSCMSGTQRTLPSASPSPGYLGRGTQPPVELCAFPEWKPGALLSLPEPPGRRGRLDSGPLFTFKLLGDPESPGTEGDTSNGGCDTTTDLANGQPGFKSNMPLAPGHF
Outline: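 Specific binding, taken as total minus that remaining with 10 μM phentolamine, is measured after filtration and counting. Rat liver receptor preparation and 0.25 nM [3H]prazosin are incubated with compound in 50 mM Tris-HCl (pH 7.4, 0.5 mM EDTA) at 25° C for 60 min. Activity is reported as percent inhibition.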

[4] = 0.03 μM compound, read-out: Percentage inhibition of ligand binding, Adrenergic α2B
[5] = 0.1 μM compound, read-out: Percentage inhibition of ligand binding, Adrenergic α2A
[6] = compound at 0.03 μM, [3H]Rauwolscine, repeat datapoints each shown
[7] = compound at 0.1 μM, [3H]MK-912, repeat datapoints each shown
[8] = compound at 0.1 μM, [3H]Prazosin, repeat datapoints each shown
[9] = read-out: Percentage inhibition of ligand binding, Adrenergic α2B (0.03 μM), compound at 0.03 μM, [3H]Rauwolscine, repeat datapoints each shown
[10] = read-out: Percentage inhibition of ligand binding, Adrenergic α2A (0.1 μM), compound at 0.1 μM, [3H]MK-912, repeat datapoints each shown
[11] = read-out: Percentage inhibition of ligand binding, Adrenergic α1B (0.1 μM), compound at 0.1 μM, [3H]Prazosin, repeat datapoints each shown
[12] = 0.1 μM compound, read-out: Percentage inhibition of ligand binding, Adrenergic α1B

Percentage inhibition of ligand binding, Adrenergic α2B ([1]; 0.03 μM compound): 40%
Percentage inhibition of ligand binding, Adrenergic α2A ([2]; 0.1 μM compound): 18%
Percentage inhibition of ligand binding, Adrenergic α1B ([3]; 0.1 μM compound): 5%
SMILES: CC(=O)OC(C)(Cn1c2c(c3cc(C)ccc31)CN(C)CC2)c1cccnc1 (single isomer, unassigned) [II-15b, acetic acid 2-(2,8-dimethyl-1,2,3,4-tetrahydro-pyrido[4,3-b]indol-5-yl)-1-methyl-1-pyridin-3-yl-ethyl ester]

inhibition at 0.03 µM [1, 4]: 43%
inhibition at 0.1 µM [2, 5]: 34%
Percentage inhibition of ligand binding, Adrenergic α1B ([3]; 0.1 μM compound): 47%
SMILES: Cc1ccc2c(c1)c1c(n2CC(O)c2ccccc2F)CN(C)CC1 (single isomer, unassigned) [II-49a, 2-(2,6-dimethyl-3,4-dihydro-1H-pyrido[3,4-b]indol-9(2H)-yl)-1-(2-fluorophenyl)ethanol]

Percentage inhibition of ligand binding, Adrenergic α2B (0.03 μM) [1, 6]: 26%
Percentage inhibition of ligand binding, Adrenergic α2A (0.1 μM) [2, 7]: 6%
Percentage inhibition of ligand binding, Adrenergic α1B (0.1 μM) [3, 8]: 12%
SMILES: Cc1ccc2c(c1)c1c(n2CC(CC(O)C(C)(C)C)c2ccncc2)CCN(C)C1 (single isomer, unassigned) [II-227d, 6-(2,8-dimethyl-1,2,3,4-tetrahydro-pyrido[4,3-b]indol-5-yl)-2,2-dimethyl-5-pyridin-4-yl-hexan-3-ol]

Ki ([1]; read-out: Ki α2B): 430 pM
inhibition at 0.03 µM [1, 9]: 105%
inhibition at 0.1 µM ([1]; read-out: Percentage inhibition of ligand binding, Adrenergic α2B (0.1 μM), compound at 0.1 μM, [3H]Rauwolscine, repeat datapoints each shown): 106%
inhibition at 0.1 µM [2, 10]: 37%
Percentage inhibition of ligand binding, Adrenergic α1B (0.1 μM) [3, 8]: 74%
inhibition at 0.03 µM ([3]; read-out: Percentage inhibition of ligand binding, Adrenergic α1B (0.03 μM), compound at 0.03 μM, [3H]Prazosin, repeat datapoints each shown): 35%
inhibition at 0.1 µM [3, 11]: 71%
SMILES: Cc1cnc2c(c1)c1c(n2CC(C)(O)c2ccc(C)nc2)CCN2CCCC12 (single isomer, unassigned) [148b]

inhibition at 0.03 µM [1, 9]: 4%
inhibition at 0.1 µM [2, 10]: 74%
inhibition at 0.1 µM [3, 11]: 6%
SMILES: Cc1ccc(CCn2c3c(c4c(Cl)ccc(Cl)c42)CCN(C)C3)cn1 [II-249, 5,8-dichloro-2,3,4,9-tetrahydro-2-methyl-9-(2-(6-methylpyridin-3-yl)ethyl)-1H-pyrido[3,4-b]indole]

inhibition at 0.03 µM [1, 9]: 99%
inhibition at 0.1 µM [2, 10]: 26%
inhibition at 0.1 µM [3, 11]: 19%
SMILES: Cc1ccc2c(c1)c1c(n2CC(CC(=O)C(C)(C)C)c2ccncc2)CCN(C)C1 (stereo not shown) [II-222, 6-(2,8-dimethyl-1,2,3,4-tetrahydro-pyrido[4,3-b]indol-5-yl)-2,2-dimethyl-5-pyridin-4-yl-hexan-3-one]

inhibition at 0.03 µM [1, 4]: 43%
inhibition at 0.1 µM [2, 5]: -11%
inhibition at 0.1 µM [3, 12]: 7%
SMILES: CN1CCc2c(c3cc(OC(F)(F)F)ccc3n2CC(O)c2ccncc2)C1 (stereo not shown) [II-67, 2-(2-methyl-8-trifluoromethoxy-1,2,3,4-tetrahydro-pyrido[4,3-b]indol-5-yl)-1-pyridin-4-yl-ethanol]

inhibition at 0.03 µM [1, 9]: 105%
inhibition at 0.1 µM [2, 10]: 109%
inhibition at 0.1 µM [3, 11]: 94%
SMILES: Cc1ccc2c(c1)c1c(n2CC(N=[N+]=[N-])c2ccc(F)cc2)CCN2CCCC12 (stereo not shown) [V-23, 7-(2-azido-2-(4-fluorophenyl)ethyl)-10-methyl-2,3,5,6,7,11c-hexahydro-1H-indolizino[7,8-b]indole]

Percentage inhibition of ligand binding, Adrenergic α2B (0.03 μM) [1, 6]: 37%
Percentage inhibition of ligand binding, Adrenergic α2A (0.1 μM) [2, 7]: −1%
Percentage inhibition of ligand binding, Adrenergic α1B (0.1 μM) [3, 8]: 41%
SMILES: Cc1ccc2c(c1)c1c(n2CC(C)(OC(=O)C(C)C)c2cccnc2)CCN(C)C1 (single isomer, unassigned) [146a]

inhibition at 0.03 µM [1, 4]: 48%
inhibition at 0.1 µM [2, 5]: -2%
inhibition at 0.1 µM [3, 12]: 68%
SMILES: Cc1ccc2c(c1)c1c(n2CC(O)c2ccc(O)c(O)c2)CCN(C)C1 (stereo not shown) [II-88, 4-[2-(2,8-dimethyl-1,2,3,4-tetrahydro-pyrido[4,3-b]indol-5-yl)-1-hydroxy-ethyl]-benzene-1,2-diol]

Percentage inhibition of ligand binding, Adrenergic α2B ([1]; 0.03 μM compound): 49%
inhibition at 0.1 µM [2, 5]: 24%
Percentage inhibition of ligand binding, Adrenergic α1B ([3]; 0.1 μM compound): 12%
SMILES: Cc1cnc2c(c1)c1c(n2CC(C)(O)c2cccnc2)CCN(C)C1 (single isomer, unassigned) [II-99a]

Percentage inhibition of ligand binding, Adrenergic α2B (0.03 μM) [1, 6]: 103%
Percentage inhibition of ligand binding, Adrenergic α2A (0.1 μM) [2, 7]: 44%
Percentage inhibition of ligand binding, Adrenergic α1B (0.1 μM) [3, 8]: 84%
SMILES: Cc1ccc2c(c1)c1c(n2CC(O)c2ccc(C)nc2)CCN2CCCC12 (single isomer, unassigned) [198b, 2-(9-methyl-1,2,3,4,5,10c-hexahydro-3a,6-diaza-cyclopenta[c]fluoren-6-yl)-1-(6-methyl-pyridin-3-yl)-ethanol]

Percentage inhibition of ligand binding, Adrenergic α2B (0.03 μM) [1, 6]: 10%
Percentage inhibition of ligand binding, Adrenergic α2A (0.1 μM) [2, 7]: 1%
Percentage inhibition of ligand binding, Adrenergic α1B (0.1 μM) [3, 8]: −4%
SMILES: CC(O)(Cn1c2c(c3cc(Cl)cnc31)C1CCCN1CC2)c1cccnc1 (single isomer, unassigned) [IV-210c]

Percentage inhibition of ligand binding, Adrenergic α2B (0.03 μM) [1, 6]: 70%
Percentage inhibition of ligand binding, Adrenergic α2A (0.1 μM) [2, 7]: −5%
Percentage inhibition of ligand binding, Adrenergic α1B (0.1 μM) [3, 8]: 25%
SMILES: Cc1ccc2c(c1)c1c(n2CC(OC(=O)N(C)C)c2ccncc2)CCN(C)C1 (single isomer, unassigned) [141a, N,N-dimethyl-carbamic acid 2-(2,8-dimethyl-1,2,3,4-tetrahydro-pyrido[4,3-b]indol-5-yl)-1-pyridin-4-yl-ethyl ester]

Percentage inhibition of ligand binding, Adrenergic α2B ([1]; compound at 0.03 μM, [3H]Rauwolscine, repeat assays, each datapoint shown): 84%
Percentage inhibition of ligand binding, Adrenergic α2A ([2]; compound at 0.1 μM, [3H]MK-912, repeat assays, each datapoint shown): 24%
Percentage inhibition of ligand binding, Adrenergic α1B ([3]; compound at 0.1 μM, [3H]Prazosin, repeat assays, each datapoint shown): 9%
SMILES: CN1CCc2c(c3cccc(Cl)c3n2CC(C)(O)c2cccnc2)C1 (single isomer, unassigned) [57b, 1-(6-chloro-2-methyl-1,2,3,4-tetrahydro-pyrido[4,3-b]indol-5-yl)-2-pyridin-3-yl-propan-2-ol]

Percentage inhibition of ligand binding, Adrenergic α2B (0.03 μM) [1, 6]: 2%
Percentage inhibition of ligand binding, Adrenergic α2A (0.1 μM) [2, 7]: −10%
Percentage inhibition of ligand binding, Adrenergic α1B (0.1 μM) [3, 8]: 5%
SMILES: CN1CCc2c(c3cc(Cl)cnc3n2CC(C)(O)c2ccc(C(F)(F)F)nc2)C1 (single isomer, unassigned) [II-109b]
